Measured values published in patent US20240385198A1, “STING MODULATOR COMPOSITIONS AND METHODS OF USE AND DETECTION THEREOF” (University of South Florida, priority 2023, published 2024).
Read-outs that look alike come from different tables or passages of the source.

Assays:
His-labeled STING = His-labeled STING (Homo sapiens, UniProt Q86WV6, H232R); experiment: Microscale thermophoresis (MST) analysis of STING modulators with 50 nM 2,3-cGAMP (Example 2); format: binding; details: compounds incubated with 50 nM 2,3-cGAMP
His-labeled STING, sequence (Q86WV6 138-379 H232R): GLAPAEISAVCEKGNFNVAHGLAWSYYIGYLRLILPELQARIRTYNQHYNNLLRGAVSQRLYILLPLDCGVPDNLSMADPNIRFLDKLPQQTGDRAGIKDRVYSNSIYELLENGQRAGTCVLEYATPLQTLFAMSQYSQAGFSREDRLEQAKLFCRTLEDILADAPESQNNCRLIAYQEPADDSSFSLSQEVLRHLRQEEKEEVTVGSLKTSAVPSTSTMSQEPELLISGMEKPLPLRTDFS
Experimental: Nanotemper Monolith NT.115 labeled thermophoresis machine (NanoTemper Technologies GmbH, München, Germany) was used with standard treated capillary tubes using samples comprised of labeled protein and titrations of small molecule in 1×PBS. […] Detection of the protein was performed using the blue detection channel with LED excitation power set to 90% and MST set to high allowing 3 s prior to MST on to check for initial fluorescence differences, 25 s for thermophoresis, and 3 s for regeneration after MST off.
[…] Analysis was performed using M.O. Affinity Analysis Software with difference between initial fluorescence measured in the first 5 s as compared with thermophoresis at 15 s at 15 different analyte concentrations ranging from 100 zM to […] and exported into Graphpad Prism v.8 using a Log inhibitor v. response 4 parameter fit.
Microscale Thermophoresis (MST) was performed on compounds incubating with 50 nM 2,3-cGAMP. Confidence is categorized as follows: 1=low confidence (<2 MST shift unit-non-statistical); 2=mid confidence (2-3 MST shift units-intermediate); 3=high confidence ([…]-statistical). Dissociation constants are categorized as follows: A<1 pM; 1 pM≤B<100 pM; 100 pM≤C<10 μM; 10 μM≤D<100 μM.

[1] = test system: STING R232 variant (human recombinant); experiment: MST competition assay of STING oligomerization with 2′,3′-cGAMP (Example 1); format: binding; details: 100 nM STING, 50 nM 2′,3′-cGAMP; for EC50 interactions (high, mid, low affinity) from MST dose-response: 1:10 series dilution 100 mM to 100 zM, FIGS. 3A, 3B, 4; for Interaction with STING as a function of incubation time (dose-response curves): 15 min, 30 min, 45 min incubation, FIGS. 2A-2C
From the text: Temperature Related Intensity Change (TRIC) is a biophysical technique that measures the strength of the interaction between two molecules by detecting a variation in the fluorescence signal of a fluorescently labeled or intrinsically fluorescent target as a result of an IR-laser induced temperature change. The extent of the temperature dependence is strongly related to the chemical environment of the fluorophore, which can be changed by the binding of a ligand to the target. Binding events below the picomolar level are difficult to detect because below this level, the ratio between target protein and analyte is too large for the detector to accurately measure movement. Herein describes a competition assay involving STING along with 2′,3′-cGAMP to detect analyte interaction with STING at sub-picomolar levels by measuring changes to oligomerization of STING.
The NanoTemper Pico instrument produces data in three separate phases: fluorescent count; normalized MST time-trace; and the change in normalized fluorescence (ΔFnorm) result. The fluorescent count is done to ensure that there is no difference between overall fluorescence between fractions, that there is enough fluorescent signal present for the detector to accurately give a reading, but not too much as to negatively affect migration during thermophoresis. It also gives indication if there is aggregation or adsorption within samples. The normalized MST time-trace gives an indication of the movement of molecules by thermophoresis within the detector sight picture over a period of time (T−Jump). The final graph is a ΔFnorm readout which is mathematically determined using the formula:
ΔFnorm=Fhot/Fcold • whereas Fhot equals an area designated by the analyst, located within the T−Jump area and Fcold equals the area within the initial fluorescence area just before the infrared (IR) laser heats the capillary tube.
STING R232 variant (human recombinant) protein was solubilized at 200 nM in HBS-P (0.01M HEPES pH 7.4, 0.15 NaCl, 0.005% v/v surfactant P20) along with 100 nM 2′,3′-cGAMP. 100 nM of NTAAtto 488 dye (blue; nitrilotriacetic acid complexed to Ni^2+) was added and incubated for 1 hour at room temperature covered from light. The resulting mixture was centrifuged at 12,000×RPM for 10 minutes prior to use. A 1:10 series dilution from 200 mM to 200 zM was created using HBS-P with 1% DMSO. The dyed STING/2′,3′-cGAMP mixture was added to each sample in a 1:1 ratio, resulting in a static 100 nM STING, 50 nM 2′,3′-cGAMP, and a concentration range from 100 mM to 100zM. Samples were incubated for 15-minutes prior to load into Monolith NT.115 capillaries and ran on dianthus NT.23 NanoTemper Pico instrument (NanoTemper Technologies GmbH, München, Germany). Samples were run again at 30- and 45-minutes.

[2] = read-out: Dissociation Constant
[3] = first of two binding events, read-out: Dissociation Constant Kd1
[4] = second of two binding events, read-out: Dissociation Constant Kd2

| Structure (SMILES) | Confidence (MST shift units) (His-labeled STING) | Kd (His-labeled STING; [2]) | further results |
| --- | --- | --- | --- |
| Cc1c(Cl)cccc1Nc1ncccc1COCC(O)CO (stereo not drawn) [Compound 1] | 1 (1=low confidence (<2 MST shift unit-non-statistical)) | 0.001 to 0.1 nM |  |
| Cc1c(Cl)cccc1Nc1ncccc1CO [Compound 4] | 2 (2=mid confidence (2-3 MST shift units-intermediate)) | < 0.001 nM |  |
| COC(=O)c1cccnc1Nc1cccc(Cl)c1C [Compound 9] | 3 (3=high confidence (>2 MST shift units-statistical)) |  | Kd (His-labeled STING; [3]): 0.1 to 10000 nM; Kd (His-labeled STING; [4]): < 0.001 nM |
| CCOC(=O)c1cccnc1Nc1cccc(Cl)c1C [Compound 10] | 1 (1=low confidence (<2 MST shift unit-non-statistical)) |  | Dissociation Constant (His-labeled STING): Low R2 |
| CCCOC(=O)c1cccnc1Nc1cccc(Cl)c1C [Compound 11] | 1 (1=low confidence (<2 MST shift unit-non-statistical)) |  | Kd (His-labeled STING; [3]): 0.1 to 10000 nM; Kd (His-labeled STING; [4]): < 0.001 nM |
| C#CCOC(=O)c1cccnc1Nc1cccc(Cl)c1C [Compound 13] | 2 (2=mid confidence (2-3 MST shift units-intermediate)) | 10000 to 100000 nM |  |
| CNC(=O)c1cccnc1Nc1cccc(Cl)c1C [Compound 14] | 2 (2=mid confidence (2-3 MST shift units-intermediate)) | 0.1 to 10000 nM |  |
| CCNC(=O)c1cccnc1Nc1cccc(Cl)c1C [Compound 15] | 1 (1=low confidence (<2 MST shift unit-non-statistical)) | 0.1 to 10000 nM |  |
| CCCNC(=O)c1cccnc1Nc1cccc(Cl)c1C [Compound 16] | 2 (2=mid confidence (2-3 MST shift units-intermediate)) | 0.1 to 10000 nM |  |
| C=CCNC(=O)c1cccnc1Nc1cccc(Cl)c1C [Compound 17] | 1 (1=low confidence (<2 MST shift unit-non-statistical)) | 0.1 to 10000 nM |  |
| Cc1c(Cl)cccc1Nc1ncccc1C(=O)OCC(O)CO (stereo not drawn) [Compound 19] | 1 (1=low confidence (<2 MST shift unit-non-statistical)) | < 0.001 nM |  |
| CCCCC(=O)c1cccnc1Nc1cccc(Cl)c1C [Compound 21] | 2 (2=mid confidence (2-3 MST shift units-intermediate)) | 0.1 to 10000 nM |  |
| Cc1c(Br)cccc1Nc1ncccc1C(=O)O [Compound 23] | 3 (3=high confidence (>2 MST shift units-statistical)) | 10000 to 100000 nM |  |
| COC(=O)c1cccnc1Nc1cccc(Br)c1C [Compound 24] | 1 (1=low confidence (<2 MST shift unit-non-statistical)) | 0.001 to 0.1 nM |  |
| Cc1c(Br)cccc1Nc1ncccc1C(=O)OCC(O)CO (stereo not drawn) [Compound 26] |  | < 0.001 nM |  |
| Cc1c(Nc2ncccc2C(=O)O)cccc1C(F)(F)F [Compound 27] | 3 (3=high confidence (>2 MST shift units-statistical)) | 0.1 to 10000 nM |  |
| Cc1c(Nc2ncccc2C(=O)OCC(O)CO)cccc1C(F)(F)F (stereo not drawn) [Compound 29] |  | < 0.001 nM |  |
| COC(=O)c1cccnc1Nc1cccc(C(F)(F)F)c1C [Compound 30] |  | 0.001 to 0.1 nM |  |

| Structure (SMILES) | Confidence (MST shift units) (His-labeled STING) | Kd (His-labeled STING; [2]) | further results |
| --- | --- | --- | --- |
| Cc1c(Cl)cccc1Nc1ccccc1C(=O)O [Compound 36] | 1 (1=low confidence (<2 MST shift unit-non-statistical)) |  | Dissociation Constant (His-labeled STING): No Binding |
| Cc1c(Cl)cccc1Nc1ccccc1C(=O)OCC(O)CO (stereo not drawn) [Compound 38] | 1 (1=low confidence (<2 MST shift unit-non-statistical)) |  | Kd (His-labeled STING; [3]): 0.1 to 10000 nM; Kd (His-labeled STING; [4]): < 0.001 nM |
| Cc1c(Cl)cccc1Nc1ncccc1CN [Compound 40] |  |  | Kd (His-labeled STING; [3]): 0.1 to 10000 nM; Kd (His-labeled STING; [4]): < 0.001 nM |
| Cc1c(Cl)cccc1Nc1ncccc1C(=O)OCCCOC(=O)c1cccnc1Nc1cccc(Cl)c1C [Compound 41] | 1 (1=low confidence (<2 MST shift unit-non-statistical)) | 0.1 to 10000 nM |  |
| CCC(COC(=O)c1cccnc1Nc1cccc(Br)c1C)OC (stereo not drawn) [Compound 42] | 2 (2=mid confidence (2-3 MST shift units-intermediate)) |  |  |
| CCC(COC(=O)c1cccnc1Nc1cccc(C)c1C)OC (stereo not drawn) [Compound 43] | 1 (1=low confidence (<2 MST shift unit-non-statistical)) |  |  |
| COC(=O)c1cccnc1Nc1cccc(F)c1C [Compound 44] | 1 (1=low confidence (<2 MST shift unit-non-statistical)) | 0.001 to 0.1 nM |  |
| Cc1cccc(Nc2ccccc2C(=O)O)c1C [Compound 45] | 1 (1=low confidence (<2 MST shift unit-non-statistical)) |  | Dissociation Constant (His-labeled STING): No Binding |
| CCC(COC(=O)c1ccccc1Nc1cccc(C)c1C)OC (stereo not drawn) [Compound 46] | 1 (1=low confidence (<2 MST shift unit-non-statistical)) |  |  |
| Cc1cccc(Nc2ncccc2C(=O)O)c1C [Compound 47] | 1 (1=low confidence (<2 MST shift unit-non-statistical)) |  | Dissociation Constant (His-labeled STING): No Binding |
| Cc1cccc(Nc2ncccc2C(=O)OCC(O)CO)c1C (stereo not drawn) [Compound 48] | 1 (1=low confidence (<2 MST shift unit-non-statistical)) |  | Dissociation Constant (His-labeled STING): No Binding |
| Cc1c(Cl)cccc1Nc1ncccc1C(=O)OCCCCOC(=O)c1cccnc1Nc1cccc(Cl)c1C [Compound 49] | 1 (1=low confidence (<2 MST shift unit-non-statistical)) | 0.001 to 0.1 nM |  |
| Cc1c(Cl)cccc1Nc1ncccc1C(=O)OCCCCCOC(=O)c1cccnc1Nc1cccc(Cl)c1C [Compound 50] | 3 (3=high confidence (>2 MST shift units-statistical)) | 0.1 to 10000 nM |  |
| NC(=O)NC1NC(=O)NC1=O (stereo not drawn) [Compound 52] | 3 (3=high confidence (>2 MST shift units-statistical)) |  | Kd (His-labeled STING; [3]): 0.1 to 10000 nM; Kd (His-labeled STING; [4]): < 0.001 nM |
| COC(=O)c1cccnc1Nc1cccc(Cl)c1C [Formula (I)] |  |  | EC50 interactions (high, mid, low affinity) from MST dose-response [1]: several nonlinear regression curves |
| C#CCOC(=O)c1cccnc1Nc1cccc(Cl)c1C [Formula (II)] |  |  | EC50 interactions (high, mid, low affinity) from MST dose-response [1]: only a low affinity EC50 |
| CNC(=O)c1cccnc1Nc1cccc(Cl)c1C [Formula (III)] |  |  | Interaction with STING as a function of incubation time (dose-response curves) [1]: relatively slow interaction |
| CNCc1cccnc1Nc1cccc(Cl)c1C [Formula (IV)] |  |  | Interaction with STING as a function of incubation time (dose-response curves) [1]: relatively rapid interaction with STING that was not maintained |
